{"source": "paper PMC12473510", "about": "“Multidisciplinary Bioanalytical Approach to Assess the Anti-Aging Properties of Flower Petals—A Promising Sustainable Cosmetic Ingredient” (Plants, 2025)", "molecular_target": "T1, porcine pancreatic elastase (PPE) (Sus scrofa, UniProt P00772)", "T1 construct": "gene CELA1; commercial native enzyme from porcine pancreas (Sigma Aldrich); PDB 1QGF printed for the docking model of PPE", "T1 sequence (P00772 27-266)": "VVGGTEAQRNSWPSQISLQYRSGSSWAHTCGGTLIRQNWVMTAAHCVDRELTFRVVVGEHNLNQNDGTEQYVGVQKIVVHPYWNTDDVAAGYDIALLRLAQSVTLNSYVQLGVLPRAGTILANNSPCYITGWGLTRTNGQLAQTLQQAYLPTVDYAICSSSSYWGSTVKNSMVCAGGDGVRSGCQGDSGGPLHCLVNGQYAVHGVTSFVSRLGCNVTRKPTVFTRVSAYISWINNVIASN", "assay": "spectrophotometric, p-nitroaniline release at […] nm", "format": "biochemical", "conditions": "read-out: IC50 Values / EI (μg/mL) (converted)", "data": [{"smiles": "O=C(O[C@@H]1Cc2c(O)cc(O)cc2O[C@@H]1c1cc(O)c(O)c(O)c1)c1cc(O)c(O)c(O)c1", "note": "[epigallocatechin gallate]", "values": [{"measurement": "IC50", "result": 759, "unit": "µM"}]}]}
